Patent US8017612B2, “Piperazine compound and use thereof as a HCV polymerase inhibitor” (priority 2006, dated 2011)

Key:
[1] = biological target: T1, HCV polymerase (NS5B) type 1a (Hepatitis C virus genotype 1a, UniProt P26664); assay: Assay of enzyme (HCV polymerase) inhibitory activity, type 1a enzyme; assay type: biochemical, HCV type 1a (cloned from the blood of patients); conditions: HCV polymerase inhibitory activity IC50, 1a, type 1a enzyme
T1 construct: made in house; host or cells: Escherichia coli (by the 'similar method' of the 1b enzyme)
How it was run: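 IC50 values derive from radioactivity of newly synthesized RNA with versus without test compound. The enzyme was C-terminally truncated type 1a NS5B, 1.5 μg/ml, run 60 min at 25° C with 3H-UTP-labelled nucleotides.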

[2] = biological target: T2, HCV polymerase (NS5B) type 1b (Hepatitis C virus genotype 1b, UniProt P26663); assay: Assay of enzyme (HCV polymerase) inhibitory activity, type 1b enzyme; assay type: biochemical, HCV BK strain (type 1b); conditions: HCV polymerase inhibitory activity IC50, 1b, type 1b enzyme
T2 construct: a region encoding NS5B (J Virol 1991 March, 65(3), 1105-13, 544 amino acids after deletion of 47 amino acids on the C-terminal); 6xHis (C); made in house; host or cells: Escherichia coli
How it was run: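 Polymerase activity was followed as radiolabelled UTP incorporation by E. coli-expressed, His-tagged NS5B of HCV type 1b lacking its last 47 residues. Conditions: 2 μM UTP, 50 μM other NTPs, Mg2+ buffer at pH 7.5, 25 °C for 60 min. Inhibition relative to compound-free reactions gave IC50.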

Work on `O=C(NCc1ccc(OC(F)(F)F)cc1)[C@H]1CN(c2nc3nc(C4CC4)ncc3s2)CCN1S(=O)(=O)c1ccc(OC(F)(F)F)cc1` [Example 975, (R)-4-(5-cyclopropyl-thiazolo[4,5-d]pyrimidin-2-yl)-1-(4-trifluoromethoxy-benzenesulfonyl)-piperazine-2-carboxylic acid 4-trifluoromethoxy-benzylamide] yielded an IC50 [1] of less than 100 nM and an IC50 [2] of less than 100 nM.
`O=C(NCc1ccc(C2CC2)cc1)[C@H]1CN(c2nc3ncncc3s2)CCN1S(=O)(=O)c1ccc(OC(F)(F)F)cc1` [Example 976, (R)-4-thiazolo[4,5-d]pyrimidin-2-yl-1-(4-trifluoromethoxy-benzenesulfonyl)-piperazine-2-carboxylic acid 4-cyclopropyl-benzylamide] gave an IC50 [1] of less than 100 nM and an IC50 [2] of less than 100 nM.
In the case of `O=C(NCc1ccc(OC(F)(F)F)cc1)[C@H]1CN(c2nn3ccc(=O)nc3s2)CCN1S(=O)(=O)c1ccc(OC(F)(F)F)cc1` [Example 977, (R)-4-(7-oxo-7H-[1,3,4]thiadiazolo[3,2-a]pyrimidin-2-yl)-1-(4-trifluoromethoxy-benzenesulfonyl)-piperazine-2-carboxylic acid 4-trifluoromethoxy-benzylamide], the IC50 [1] is reported as less than 100 nM and the IC50 [2] is reported as less than 100 nM.
Compound `CC(=O)c1sc(N2CCN(S(=O)(=O)c3ccc(OC(F)(F)F)cc3)[C@@H](C(=O)NCc3ccc(OC(F)(F)F)cc3)C2)nc1C` [Example 978, (R)-4-(5-acetyl-4-methyl-thiazol-2-yl)-1-(4-trifluoromethoxy-benzenesulfonyl)-piperazine-2-carboxylic acid 4-trifluoromethoxy-benzylamide] has an IC50 [1] of less than 100 nM and an IC50 [2] of less than 100 nM.
Work on `NC(=O)c1ncc2sc(N3CCN(S(=O)(=O)c4ccc(OC(F)(F)F)cc4)[C@@H](C(=O)NCc4ccc(OC(F)(F)F)cc4)C3)nc2n1` [Example 979, 2-[(R)-4-(4-trifluoromethoxy-benzenesulfonyl)-3-(4-trifluoromethoxy-benzylcarbamoyl)-piperazin-1-yl]-thiazolo[4,5-d]pyrimidine-5-carboxylic acid amide] yielded an IC50 [1] of less than 100 nM and an IC50 [2] of less than 100 nM.
`Cc1nn(C)c2nc(N3CCN(S(=O)(=O)c4ccc(OC(F)(F)F)cc4)[C@@H](C(=O)NCc4ccc(OC(F)(F)F)cc4)C3)sc12` [Example 980, (R)-4-(1,3-dimethyl-1H-pyrazolo[3,4-d]thiazol-5-yl)-1-(4-trifluoromethoxy-benzenesulfonyl)-piperazine-2-carboxylic acid 4-trifluoromethoxy-benzylamide] was tested, and the IC50 [1] was less than 100 nM and the IC50 [2] was less than 100 nM.
With `O=C(NCc1ccc(OC(F)(F)F)cc1)[C@H]1CN(c2nc3nc(C(F)(F)F)ncc3s2)CCN1S(=O)(=O)c1ccc(C(F)(F)F)cc1` [Example 981, (R)-1-(4-trifluoromethyl-benzenesulfonyl)-4-(5-trifluoromethyl-thiazolo[4,5-d]pyrimidin-2-yl)-piperazine-2-carboxylic acid 4-trifluoromethoxy-benzylamide] the IC50 [1] was less than 100 nM and the IC50 [2] was less than 100 nM.
For `Cc1nc(N)c2sc(N3CCN(S(=O)(=O)c4ccc(OC(F)(F)F)cc4)[C@@H](C(=O)NCc4ccc(OC(F)(F)F)cc4)C3)nc2n1` [Example 982, (R)-4-(7-amino-5-methyl-thiazolo[4,5-d]pyrimidin-2-yl)-1-(4-trifluoromethoxy-benzenesulfonyl)-piperazine-2-carboxylic acid 4-trifluoromethoxy-benzylamide], the IC50 [1] was less than 100 nM and the IC50 [2] was less than 100 nM.
Compound `O=C(NCc1ccc(OC(F)(F)F)cc1)[C@H]1CN(c2nc3nc(C4CC4)ncc3s2)CCN1S(=O)(=O)c1ccc(C(F)(F)F)cc1` [Example 983, (R)-4-(5-cyclopropyl-thiazolo[4,5-d]pyrimidin-2-yl)-1-(4-trifluoromethyl-benzenesulfonyl)-piperazine-2-carboxylic acid 4-trifluoromethoxy-benzylamide] has an IC50 [1] of less than 100 nM and an IC50 [2] of less than 100 nM.
With `CC(C)c1ncc2sc(N3CCN(S(=O)(=O)c4ccc(OC(F)(F)F)cc4)[C@@H](C(=O)NCc4ccc(OC(F)(F)F)cc4)C3)nc2n1` [Example 984, (R)-4-(5-isopropyl-thiazolo[4,5-d]pyrimidin-2-yl)-1-(4-trifluoromethoxy-benzenesulfonyl)-piperazine-2-carboxylic acid 4-trifluoromethoxy-benzylamide] the IC50 [1] was less than 100 nM and the IC50 [2] was less than 100 nM.
Compound `O=C(NCc1ccc(OC(F)(F)F)cc1)[C@H]1CN(c2nc3c(Cl)nncc3s2)CCN1S(=O)(=O)c1ccc(OC(F)(F)F)cc1` [Example 985, (R)-4-(4-chloro-thiazolo[4,5-d]pyridazin-2-yl)-1-(4-trifluoromethoxy-benzenesulfonyl)-piperazine-2-carboxylic acid 4-trifluoromethoxy-benzylamide] has an IC50 [1] of less than 100 nM and an IC50 [2] of less than 100 nM.
For `Cc1nnc2sc(N3CCN(S(=O)(=O)c4ccc(OC(F)(F)F)cc4)[C@@H](C(=O)NCc4ccc(OC(F)(F)F)cc4)C3)nn2c1=O` [Example 986, (R)-4-(3-methyl-4-oxo-4H-[1,3,4]thiadiazolo[2,3-c][1,2,4]triazin-7-yl)-1-(4-trifluoromethoxy-benzenesulfonyl)-piperazine-2-carboxylic acid 4-trifluoromethoxy-benzylamide], the IC50 [1] was less than 100 nM and the IC50 [2] was less than 100 nM.
Compound `O=C(NCc1ccc(OC(F)(F)F)cc1)[C@H]1CN(c2nc3nnncc3s2)CCN1S(=O)(=O)c1ccc(OC(F)(F)F)cc1` [Example 987, (R)-4-thiazolo[4,5-d][1,2,3]triazin-6-yl-1-(4-trifluoromethoxy-benzenesulfonyl)-piperazine-2-carboxylic acid 4-trifluoromethoxy-benzylamide] has an IC50 [1] of less than 100 nM and an IC50 [2] of less than 100 nM.
For `O=C(CC(=O)N1CCN(S(=O)(=O)c2ccc(OC(F)(F)F)cc2)[C@@H](C(=O)NCc2ccc(OC(F)(F)F)cc2)C1)Nc1nnc(Br)s1` [Example 988, (R)-4-[2-(5-bromo-[1,3,4]thiadiazol-2-ylcarbamoyl)-acetyl]-1-(4-trifluoromethoxy-benzenesulfonyl)-piperazine-2-carboxylic acid 4-trifluoromethoxy-benzylamide], the IC50 [1] was greater than 1000 nM and the IC50 [2] was greater than 1000 nM.
Compound `O=C(NCc1cc2ccccn2c1)[C@H]1CN(c2nc3ncncc3s2)CCN1S(=O)(=O)c1ccc(OC(F)(F)F)cc1` [Example 989, (R)-4-thiazolo[4,5-d]pyrimidin-2-yl-1-(4-trifluoromethoxy-benzenesulfonyl)-piperazine-2-carboxylic acid (indolizin-2-ylmethyl)-amide] has an IC50 [1] of less than 100 nM and an IC50 [2] of less than 100 nM.
In the case of `CNC(=O)c1cc(=O)nc2sc(N3CCN(S(=O)(=O)c4ccc(OC(F)(F)F)cc4)[C@@H](C(=O)NCc4ccc(OC(F)(F)F)cc4)C3)nn12` [Example 990, 7-oxo-2-[(R)-4-(4-trifluoromethoxy-benzenesulfonyl)-3-(4-trifluoromethoxy-benzylcarbamoyl)-piperazin-1-yl]-7H-[1,3,4]thiadiazolo[3,2-a]pyrimidine-5-carboxylic acid methylamide], the IC50 [1] is reported as less than 100 nM and the IC50 [2] is reported as less than 100 nM.
Compound `CC(C)c1ncc2sc(N3CCN(S(=O)(=O)c4ccc(C(F)(F)F)cc4)[C@@H](C(=O)NCc4ccc(OC(F)(F)F)cc4)C3)nc2n1` [Example 991, (R)-4-(5-isopropyl-thiazolo[4,5-d]pyrimidin-2-yl)-1-(4-trifluoromethyl-benzenesulfonyl)-piperazine-2-carboxylic acid 4-trifluoromethoxy-benzylamide] has an IC50 [1] of less than 100 nM and an IC50 [2] of less than 100 nM.
For `O=C(NCc1ccc(OC(F)(F)F)cc1)[C@H]1CN(c2nc3nc(CC4CC4)ncc3s2)CCN1S(=O)(=O)c1ccc(OC(F)(F)F)cc1` [Example 992, (R)-4-(5-cyclopropylmethyl-thiazolo[4,5-d]pyrimidin-2-yl)-1-(4-trifluoromethoxy-benzenesulfonyl)-piperazine-2-carboxylic acid 4-trifluoromethoxy-benzylamide], the IC50 [1] was less than 100 nM and the IC50 [2] was less than 100 nM.
`CCN(CC)c1nc2nc(Cl)nc(N3CCN(S(=O)(=O)c4ccc(OC(F)(F)F)cc4)[C@@H](C(=O)NCc4ccc(OC(F)(F)F)cc4)C3)c2s1` [Example 993, (R)-4-(5-chloro-2-diethylamino-thiazolo[4,5-d]pyrimidin-7-yl)-1-(4-trifluoromethoxy-benzenesulfonyl)-piperazine-2-carboxylic acid 4-trifluoromethoxy-benzylamide] was tested, and the IC50 [1] was greater than 1000 nM and the IC50 [2] was greater than 1000 nM.
In the case of `CC(C)(O)C#Cc1ncc2sc(N3CCN(S(=O)(=O)c4ccc(OC(F)(F)F)cc4)[C@@H](C(=O)NCc4ccc(OC(F)(F)F)cc4)C3)nc2n1` [Example 994, (R)-4-[5-(3-hydroxy-3-methyl-but-1-ynyl)-thiazolo[4,5-d]pyrimidin-2-yl]-1-(4-trifluoromethoxy-benzenesulfonyl)-piperazine-2-carboxylic acid 4-trifluoromethoxy-benzylamide], the IC50 [1] is reported as less than 100 nM and the IC50 [2] is reported as less than 100 nM.
For `C#Cc1ncc2sc(N3CCN(S(=O)(=O)c4ccc(OC(F)(F)F)cc4)[C@@H](C(=O)NCc4ccc(OC(F)(F)F)cc4)C3)nc2n1` [Example 995, (R)-4-(5-ethynyl-thiazolo[4,5-d]pyrimidin-2-yl)-1-(4-trifluoromethoxy-benzenesulfonyl)-piperazine-2-carboxylic acid 4-trifluoromethoxy-benzylamide], the IC50 [1] was less than 100 nM and the IC50 [2] was less than 100 nM.
